In patent US9895370B2, “Pharmaceutical composition for preventing or treating of cirrhosis of liver comprising G protein coupled receptor 119 ligand as an active ingredient” (DONGGUK UNIVERSITY INDUSTRY—ACADEMIC COOPERATION FOUNDATION, priority 2015, dated 2018):

Legend:
Smad2/Smad3 = experiment: TGFβ1-elevated Smad2/Smad3 phosphorylation and nuclear translocation in LX-2; format: cell-based, human
Experimental: A human HSC line (LX-2, Milipore, U.S.A.) was plated in a 6-well plate, and grown to confluency in DMEM supplemented with 1% penicillin-streptomycin (Hyclone, U.S.A.) and 2% fetal bovine serum (Hyclone, U.S.A.) at 37° C. in a 5% CO2 incubator. For a further experiment, the confluent HSC line was incubated in an FBS-free medium, instead of the 2% FBS-added medium.
A whole cell lysate and a nuclear fraction were separated according to a conventional method. More specifically, the whole cell lysate was obtained by lysing cells washed with phosphate buffered saline (PBS) with a lysis buffer [10 mM Tris-HCl (pH 7.1), 100 mM NaCl, 1 mM EDTA, 10% glycerol, 0.5% Triton X-100, 0.5% Nonidet P-40, 1 mM dithiothreitol and 0.5 mM phenylmethylsulfonyl fluoride (PMSF)] at 4° C. for 30 minutes, and centrifuging the resulting solution at 14,000×g for 15 minutes to obtain a supernatant. To obtain the nuclear fraction, a low-osmotic pressure buffer containing 10 mM HEPES (pH 7.9), 10 mM KCl, 0.1 mM EDTA, 1 mM DTT and 0.5 mM PMSF was added and reacted at 4° C. for 10 minutes. Following addition of 10% Nonidet P-40 and vortexing for 10 seconds, the supernatant obtained by centrifugation at 13,000 rpm for 3 minutes was removed, and the remaining precipitate was washed three times with a low-osmotic pressure buffer. The precipitate was mixed with a high-osmotic pressure buffer [20 mM HEPES (pH 7.9), 400 mM NaCl, 1 mM EDTA, 1 mM DTT and 1 mM PMSF] and vortexed again at 4° C. for 10 minutes to induce a reaction for 20 minutes. Following centrifugation at 13,000 rpm for 10 minutes, a supernatant was obtained to be used as a nuclear fraction. A protein concentration was quantified using a protein quantify kit of PRO-MEASURE™ protein measurement solution (iNtRON Biotechnology, South Korea) according to the Bradford assay.
Sodium dodecylsulfate-polyacrylamide gel electrophoresis (SDS-PAGE) was performed using a gel electrophoresis device (Mighty Small SE 250, Hoefer Scientific Instruments, San Francisco) according to the method established by the inventors. […]

[1] = system: mouse embryonic fibroblasts (MEFs); experiment: collagen I and α-SMA protein expression in mouse embryonic fibroblasts (western blot); format: cell-based; conditions: FIG. 2b
Experimental: Sodium dodecylsulfate-polyacrylamide gel electrophoresis (SDS-PAGE) was performed using a gel electrophoresis device (Mighty Small SE 250, Hoefer Scientific Instruments, San Francisco) according to the method established by the inventors. A lysed cell fraction was diluted with a sample dilution buffer [63 mM Tris (pH. 6.8), 10% glycerol, 2% SDS, 0.0013% bromophenol blue, 5% β-mercaptoethanol], and subjected to electrophoresis in an electrode buffer (15 g Tris, 72 g glycerin and 5 g SDS contained in an 1 L solution) using a 8-12% gel. After electrophoresis, the gel was transferred to a nitrocellulose membrane to transfer proteins using an electrophoresis device for transfer in a transfer buffer (25 mM Tris, 192 mM glycerin, 20% v/v methanol (pH. 8.3)] at 40 mA for 3 hours. The nitrocellulose membrane was reacted with first antibodies, reacted with horseradish peroxidase-conjugated goat anti-rabbit IgG and horseradish peroxidase-conjugated goat anti-mouse IgG as secondary antibodies for 1 hour, and visualized using an ECL chemiluminescence system (Amersham, Gaithesberg, Mass.).

mouse HSCs = experiment: col1A1 mRNA expression in primary cultured mouse HSCs during in vitro culture-induced activation; format: cell-based; conditions: treated on day 1, 3 and 5, FIG. 2a
Experimental: HSCs were isolated from a male C57BL/6 mouse, a male GPR119 WT mouse and a GPR119 KO mouse. More specifically, each mouse was anesthetized to perform an abdominal incision, a cannula was inserted into the hepatic portal vein to introduce a gas mixture of 5% CO2 and 95% 02, and then Ca^2+, Mg^2+-free Hank's balanced salt solution was injected into the cannula at 37° C. to remove blood in the liver. Afterward, a 0.1% collagenase type IV (Sigma, U.S.A.) solution was injected. The liver tissue was detached from the body and prepared in a liver cell suspension, and following centrifugation at 1000×g for 10 minutes, a precipitated cell layer was obtained by floating HSCs to isolate through a density gradient method using Nycodenz. The isolated HSCs were cultured in high glucose Dulbecco's Modified Eagle's Medium (DMEM) containing 10% fetal bovine serum, 50 U/ml penicillin and […] streptomycin at 37° C. in 5% CO2.
Total RNA ([…]) extracted from cells using Trizol and a Maxime RT PreMix Kit (iNtRON Biotechnology, Gyeonggi-do, Korea) was used to obtain cDNA. […]
Meanwhile, for real-time RT-qPCR, the synthesized cDNA was assessed in a CFX Connect™ Real-Time PCR Detection System (Bio-Rad Laboratories, CA, USA) instrument using a SYBR green dye (Bio-Rad). […]

[2] = system: C57BL/6 mice with liver fibrosis induced by carbon tetrachloride; experiment: carbon tetrachloride (CCl4)-induced liver fibrosis animal model; format: in vivo, mouse
Experimental: 6-week-old male C57BL/6J mice (Joongang laboratory animal, Seoul) were acclimated in a laboratory environment for 1 week with solid feed, and randomly arranged in control groups and experimental groups according to randomized block design. Then, carbon tetrachloride (1 ml/kg) was administered to 6-week-old male C57BL/6 mice (Joongang laboratory animal, Seoul) twice a week for three weeks to induce liver fibrosis, and a GPR119 ligand (10 mg/kg) suspended in 40% PEG400 was orally administered thereto once a day for five days per week. For liver fibrosis models induced by dimethylnitrosamine (DMN), DMN (10 mg/kg) was administered to mice three times a week to induce liver fibrosis. As the control group, a vehicle-treated group was used. After termination of the experiment, the laboratory animals were fasted for 12 hours or more, and anesthetized with Zoletil to obtain blood and the liver, and the liver was washed with 0.1 M phosphate buffered saline (PBS; pH 7.4) and weighed. The blood obtained from the abdominal aorta was centrifuged in an SST tube at 3000×RPM for 20 minutes to isolate the serum.
For the above-mentioned laboratory animals, serum alanine transaminase (ALT), aspartate transaminase (AST), total bilirubin (T-BIL) and direct bilirubin (D-BIL) were analyzed using an automated hematology analyzer, Spectrum [(Abbott Laboratories, Abbott Park, Ill.)].
The liver samples obtained as described above were prepared into sections, and the tissue section was fixed with 10% buffered neutral formalin and embedded in paraffin. Afterward, the resulting section was sliced to a 4-μm thickness, and put on a slide to fix a specimen, stained with sirius red, and observed using an optical microscope.
A predetermined amount of liver tissue was homogenized in a mortar with liquid nitrogen and a lysis buffer, and the resulting tissue solution was transferred into a new tube and then vortexed. The tissue solution was centrifuged at 14,000 rpm and 4° C. for 20 minutes, and the intermediate layer was extracted to quantify a protein by a Bradford method. 30 μg of proteins were analyzed by electrophoresis using an SDS polyacrylamide gel, and the change of protein expression was analyzed by western blot.
To examine improvement of liver fibrosis by the GPR119 ligand, in an animal model having liver fibrosis induced by carbon tetrachloride (CCl4), an effect of the GPR119 ligand on inhibiting liver fibrosis was observed.
First, 1 ml/kg of carbon tetrachloride was intraperitoneally administered twice a week, and also orally administered with the GPR119 ligand (MBX-2982) at doses of 20 and 40 mg/kg, respectively, once a day for 5 days a week. Three weeks later, liver tissue was extracted, subjected to sirius red staining for confirming collagen production and immunohistochemical staining for confirming expression of a HSC activation marker, that is, α-SMA, and then compared with a control group and a carbon tetrachloride only-treated group.

[3] = 40 mg/kg oral once a day 5 days a week, 3 weeks, FIG. 3a
[4] = 40 mg/kg, western blot, FIG. 3c
[5] = blood, CCl4 + MBX 20 (20 mg/kg oral)

`CCc1cnc(N2CCC(c3nc(COc4ccc(-n5cnnn5)cc4)cs3)CC2)nc1` [MBX-2982, 4-((4-(1H-tetrazol-1-yl)phenoxy)methyl)-2-(1-(5-ethylpyrimidin-2-yl)piperidin-4-yl)thiazole] was tested, and the “nuclear translocation of Smad2/Smad3 elevated by TGFβ1” value (Smad2/Smad3; LX-2, FIG. 2e) was “inhibited”, the “phosphorylation of Smad2/Smad3 elevated by TGFβ1” value (Smad2/Smad3; LX-2, FIG. 2e) was “inhibited” and the “inhibitory action on phosphorylation of Smad3 activated by TGFβ1, under AMPK inhibition” value (Smad2/Smad3; compound C / DN-AMPK, FIG. 4d) was “partially recovered by AMPK inhibition, but not completely offset”. The “collagen I expression” value [1] was “inhibited”, the α-SMA expression [1] was “inhibited” and the “mRNA expression of collagen col1A1” value (mouse HSCs) was “considerably inhibited”. For the same compound, the “collagen production (sirius red staining) in liver tissue” value [2, 3] was “significantly reduced”, the “α-SMA expression (immunohistochemical staining) in liver tissue” value [2, 3] was “significantly reduced” and the amount of hydroxyproline ([2]; 40 mg/kg oral, FIG. 3b) was “statistically significantly reduced”. For the same compound, the “expression of TGFβ protein in liver tissue” value [2, 4] was “statistically significantly inhibited”, the “expression of collagen I protein in liver tissue” value [2, 4] was “statistically significantly inhibited” and the “expression of α-SMA protein in liver tissue” value [2, 4] was “statistically significantly inhibited”. It also gave an ALT [2, 5] of 38.55 U/L, an AST [2, 5] of 94.06 U/L and a D-BIL [2, 5] of 0.11 mg/dL. It also gave a T-BIL [2, 5] of 0.20 mg/dL and an ALT ([2]; blood, CCl4 + MBX 40 (40 mg/kg oral)) of 32.06 U/L.
